Experiments:
Type in all cases: physicochemical
[1] = photochromic response of test squares on an optical bench (sensitivity, saturation optical density, bleach rate); details: for ΔOD @ Saturation (Band A) / ΔOD @ Saturation (Band B): UV exposure 15 minutes; for ΔOD @ Saturation (Band A) / Sensitivity ΔOD/MIN (Band A) / ΔOD @ Saturation (Band B) / Sensitivity ΔOD/MIN (Band B): 72° F. (22.2° C.), polymer test square; for Sensitivity ΔOD/MIN (Band A) / Sensitivity ΔOD/MIN (Band B): first five (5) seconds of UV exposure, expressed per minute; for Bleach Rate T 1/2: measured at band B, room temperature (72° F., 22.2° C.) after removal of activating light
Description: (§1) Testing was done with the photochromic compounds described in Examples 1 through 20 and Comparative Examples 1 through 3 in the following manner. A quantity of photochromic compound calculated to yield a 1.5×10^-3 molal solution was added to a flask containing 50 grams of a monomer blend of 4 parts ethoxylated bisphenol A dimethacrylate (BPA 2EO DMA), 1 part poly(ethylene glycol) 600 dimethacrylate, and 0.033 weight percent 2,2'-azobis(2-methyl propionitrile) (AIBN). The photochromic compound was dissolved into the monomer blend by stirring and gentle heating, if necessary. After a clear solution was obtained, it was poured into a flat sheet mold having the interior dimensions of 2.2 mm×6 inches (15.24 cm)×6 inches (15.24 cm). The mold was sealed and placed in a horizontal air flow, programmable oven programmed to increase the temperature from 40° C. to 95° C. over a 5 hour interval, hold the temperature at 95° C. for 3 hours, lower it to 60° C. over a 2 hour interval and then hold it at 60° C. for 16 hours. After the mold was opened, the polymer sheet was cut using a diamond blade saw into 2 inch (5.1 centimeters) test squares.
(§2) The photochromic test squares of Part A were tested for photochromic response rates on an optical bench. Prior to testing on the optical bench, the photochromic test squares were exposed to 365 nanometer ultraviolet light for about 15 minutes to activate the photochromic compounds and then placed into a 76° C. oven for about 15 minutes to bleach the photochromic compounds. The test squares were then cooled to room temperature, exposed to fluorescent room lighting for at least 2 hours and then kept covered for at least 2 hours prior to testing on an optical bench maintained at 72° F. (22.2° C.). The bench was fitted with a 250 watt Xenon arc lamp, a remote controlled shutter, a copper sulfate bath acting as a heat sink for the arc lamp, a Schott WG-320 nm cut-off filter which removes short wavelength radiation; neutral density filter(s) and a sample holder in which the square to be tested was inserted. The power output of the optical bench, i.e., the dosage of light that the sample lens would be exposed to, was calibrated with a photochromic test square used as a reference standard. […] The UV-A detector was placed into the sample holder and the light output was measured. Adjustments to the power output were made by increasing or decreasing the lamp wattage or by adding or removing neutral density filters in the light path.
A monitoring, collimated beam of light from a tungsten lamp was passed through the square at a small angle (approximately 30°) normal to the square. After passing through the square, the light from the tungsten lamp was directed to a detector through Spectral Energy Corp. GM-200 monochromator set at the previously determined visible lambda max of the photochromic compound being measured. The output signals from the detector were processed by a radiometer.
(§3) Change in optical density (ΔOD) was determined by inserting a test square in the bleached state into the sample holder, adjusting the transmittance scale to 100%, opening the shutter from the Xenon lamp to provide ultraviolet radiation to change the test square from the bleached state to an activated (i.e., darkened) state, measuring the transmittance in the activated state, and calculating the change in optical density according to the formula: ΔOD=log(100/% Ta), where % Ta is the percent transmittance in the activated state and the logarithm is to the base 10.
The ΔOD/Min, which represents the sensitivity of the photochromic compound's response to UV light, was measured over the first five (5) seconds of UV exposure, then expressed on a per minute basis. The saturation optical density (ΔOD@ Saturation) was taken under identical conditions as the ΔOD/Min, except UV exposure was continued for 15 minutes. […]

[2] = Relative ΔOD at Saturation Test; details: ΔOD at saturation (Band A)/ΔOD at saturation (Band B)×100
Description: In accordance with the present invention, it has now been discovered that certain novel indeno[2,1-f]naphtho[1,2-b]pyrans having two absorption bands in the activated (colored) state, an acceptable fade rate, high activated intensity, a high coloration rate and a rating of 80 or higher in the Relative ΔOD at Saturation Test may be prepared. The Relative ΔOD at Saturation Test is described in Example 21. The ratings of the test are defined herein as the result obtained when the optical density of band "A" is divided by the optical density of band "B" and multiplied by 100. It is believed that compounds having a rating of 80 or higher are most valuable for formulating neutral grays, greens and browns for commercial photochromic ophthalmic eyeware.
as §1, §2
as §3, with “10. […]” for “10.”

[3] = lambda max (Vis) of activated photochromic test squares in a Varian Cary 3 uv-visible spectrophotometer; details: activated form in test square
Description: as §1
The lambda max (Vis) is the wavelength in the visible spectrum at which the maximum absorption of the activated (colored) form of the photochromic compound in a test square occurs. The lambda max (Vis) wavelengths reported in Table 1 were determined by testing the photochromic test square polymerizates of Part A in a Varian Cary 3 uv-visible spectrophotometer. The bleach rate (T 1/2) is the time interval in seconds for the absorbance of the activated form of the photochromic compound in the test squares to read one half the highest absorbance at room temperature (72° F., 22.2° C.) after removal of the source of activating light.
For each lambda max visible, the corresponding optical density (Δ OD/Min and Δ OD at saturation) for the desired compounds of the Examples and Comparative Examples are tabulated in Table 1 for the two bands (A and B) of peak absorption for each compound. Table 1 also includes the bleach rate (T 1/2) for each of the compounds as measured at band B. The ratings of the Relative Δ OD at Saturation Test for the bands A and B of each of the Examples and Comparative Examples are calculated as follows: Δ OD at saturation (Band A)/Δ OD at saturation (Band B)×100.

Structure (SMILES)	ΔOD @ Saturation (Band A) [1]	Sensitivity ΔOD/MIN (Band A) [1]	ΔOD @ Saturation (Band B) [1]	Sensitivity ΔOD/MIN (Band B) [1]	Bleach Rate T 1/2 [1]	Relative ΔOD at Saturation (rating) [2]	λ MAX Vis (Band A) [3]	λ MAX Vis (Band B) [3]
CCC1(O)c2ccccc2-c2c1c1c(c3ccccc23)OC(c2ccc(OC)cc2)(c2ccc(OC)cc2)C=C1 (centres unmarked) [Comp. Ex. 1, 3,3-di(4-methoxyphenyl)-13-hydroxy-13-ethyl-3H-13H-indeno[2,1-f]naphtho[1,2-b]pyran, reference compound]	0.16	0.21 ΔOD/MIN	0.27	0.29 ΔOD/MIN	0.783 min	59	437 nm	562 nm
CCC1(O)c2cc(OC)ccc2-c2c1c1c(c3cc(OC)ccc23)OC(c2ccc(OC)cc2)(c2ccc(OC)cc2)C=C1 (centres unmarked) [Comp. Ex. 2, 3,3-di(4-methoxyphenyl)-6,11-dimethoxy-13-hydroxy-13-ethyl-3H-13H-indeno[2,1-f]naphtho[1,2-b]pyran, reference compound]	0.36	0.22 ΔOD/MIN	0.51	0.32 ΔOD/MIN	2.17 min	70	499 nm	607 nm
CCC1(O)c2cc(OC)c(OC)cc2-c2c1c1c(c3ccccc23)OC(c2ccc(OC)cc2)(c2ccc(OC)cc2)C=C1 (centres unmarked) [Comp. Ex. 3, 3,3-di(4-methoxyphenyl)-10,11-dimethoxy-13-hydroxy-13-ethyl-3H-13H-indeno[2,1-f]naphtho[1,2-b]pyran, reference compound]	0.34	0.32 ΔOD/MIN	0.48	0.48 ΔOD/MIN	1.27 min	71	445 nm	600 nm
COc1ccc(C2(c3ccc(OC)cc3)C=Cc3c4c(c5cc(OC)c(OC)cc5c3O2)-c2cc(OC)c(OC)cc2C4(C)C)cc1 [Example 1, 3,3-di(4-methoxyphenyl)-6,7,10,11-tetramethoxy-13,13-dimethyl-3H,13H-indeno[2,1-f]naphtho[1,2-b]pyran]	0.99	0.33 ΔOD/MIN	0.79	0.24 ΔOD/MIN	8.77 min	125	445 nm	611 nm
COc1cc2c(cc1OC)C(C)(C)c1c3c(c4cc(OC)c(OC)cc4c1-2)OC(c1ccccc1)(c1ccc(N2CCOCC2)cc1)C=C3 (centres unmarked) [Example 2, 3-phenyl-3-(4-morpholinophenyl)-6,7,10,11-tetramethoxy-13,13-dimethyl-3H,13H-indeno[2,1-f]naphtho[1,2-b]pyran]	1.10	0.32 ΔOD/MIN	1.07	0.29 ΔOD/MIN	14.2 min	103	485 nm	618 nm

Other lines, results leading:

ΔOD @ Saturation (Band A) [1]	Sensitivity ΔOD/MIN (Band A) [1]	ΔOD @ Saturation (Band B) [1]	Sensitivity ΔOD/MIN (Band B) [1]	Bleach Rate T 1/2 [1]	Relative ΔOD at Saturation (rating) [2]	λ MAX Vis (Band A) [3]	λ MAX Vis (Band B) [3]	Structure (SMILES)
0.62	0.34 ΔOD/MIN	0.41	0.24 ΔOD/MIN	2.58 min	151	460 nm	623 nm	CCC1(O)c2cc(OC)c(OC)cc2-c2c1c1c(c3cc(OC)c(OC)cc23)OC(c2ccc(OC)cc2)(c2ccc(OC)cc2)C=C1 (centres unmarked) [Example 3, 3,3-di(4-methoxyphenyl)-6,7,10,11-tetramethoxy-13-hydroxy-13-ethyl-3H,13H-indeno[2,1-f]naphtho[1,2-b]pyran]
1.11	0.39 ΔOD/MIN	0.71	0.22 ΔOD/MIN	4.45 min	156	455 nm	576 nm	COc1ccc(C2(c3ccc(OC)cc3)C=Cc3c4c(c5cc(OC)c(OC)cc5c3O2)-c2ccccc2C4(C)C)cc1 [Example 4, 3,3-di(4-methoxyphenyl)-6,7-dimethoxy-13,13-dimethyl-3H-13H-indeno[2,1-f]naphtho[1,2-b]pyran]
0.42	0.26 ΔOD/MIN	0.27	0.19 ΔOD/MIN	1.45 min	155	458 nm	584 nm	CCC1(O)c2ccccc2-c2c1c1c(c3cc(OC)c(OC)cc23)OC(c2ccc(OC)cc2)(c2ccc(OC)cc2)C=C1 (centres unmarked) [Example 5, 3,3-di(4-methoxyphenyl)-6,7-dimethoxy-13-hydroxy-13-ethyl-3H-13H-indeno[2,1-f]naphtho[1,2-b]pyran]
1.02	0.46 ΔOD/MIN	0.73	0.37 ΔOD/MIN	5.17 min	140	440 nm	608 nm	CCC1(CC)c2cc(OC)c(OC)cc2-c2c1c1c(c3cc(OC)c(OC)cc23)OC(c2ccc(OC)cc2)(c2ccc(OC)cc2)C=C1 [Example 6, 3,3-di(4-methoxyphenyl)-6,7,10,11-tetramethoxy-13,13-diethyl-3H,13H-indeno[2,1-f]naphtho[1,2-b]pyran]
0.66	0.17 ΔOD/MIN	0.43	0.16 ΔOD/MIN	3.43 min	153	460 nm	577 nm	COc1ccc(C2(c3ccc(OC)cc3)C=Cc3c4c(c5cc(OC)c(OC)cc5c3O2)-c2ccccc2C4c2ccccc2)cc1 (centres unmarked) [Example 7, 3,3-di(4-methoxyphenyl)-6,7-dimethoxy-13-phenyl-3H,13H-indeno[2,1-f]naphtho[1,2-b]pyran]

Source: patent publication US6296785A, “Indeno-fused photochromic naphthopyrans” (PPG Industries Ohio, Inc., priority 2000, dated 2001)
